# Assay results taken from patent US20230066011A1, “PYRROLOPYRIMIDINE DERIVATIVE, AND PHARMACEUTICAL COMPOSITION FOR PREVENTING OR TREATING PROTEIN KINASE-RELATED DISEASE COMPRISING SAME AS ACTIVE INGREDIENT” (VORONOI CO., LTD., priority 2019, published 2023).
# Assays:
# [1] = target: LRRK2 (Homo sapiens, UniProt Q5S007); assay: LRRK2 enzyme inhibition, ADP-Glo kinase assay; assay type: biochemical; set-up: purchased Invitrogen PR8604B; settings: ATP 10 μM
# In short: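 ADP-Glo luminescent read-out of ADP formed by purified human LRRK2 enzyme (25 ng), 10 μM ATP, 0.2 μg substrate, 25° C for 2 h, Tris-HCl pH 7.4 buffer with MgCl2, BSA, DTT. Inhibition versus untreated solvent control over twelve final concentrations (50 μM downward) gives IC50.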
# [2] = target: T1, TTK (Homo sapiens, UniProt P33981); assay: TTK enzyme inhibition, ADP-Glo kinase assay; assay type: biochemical; set-up: purchased SignalChem T20-10G; settings: ATP 5 μM
# T1 sequence (P33981 1-857): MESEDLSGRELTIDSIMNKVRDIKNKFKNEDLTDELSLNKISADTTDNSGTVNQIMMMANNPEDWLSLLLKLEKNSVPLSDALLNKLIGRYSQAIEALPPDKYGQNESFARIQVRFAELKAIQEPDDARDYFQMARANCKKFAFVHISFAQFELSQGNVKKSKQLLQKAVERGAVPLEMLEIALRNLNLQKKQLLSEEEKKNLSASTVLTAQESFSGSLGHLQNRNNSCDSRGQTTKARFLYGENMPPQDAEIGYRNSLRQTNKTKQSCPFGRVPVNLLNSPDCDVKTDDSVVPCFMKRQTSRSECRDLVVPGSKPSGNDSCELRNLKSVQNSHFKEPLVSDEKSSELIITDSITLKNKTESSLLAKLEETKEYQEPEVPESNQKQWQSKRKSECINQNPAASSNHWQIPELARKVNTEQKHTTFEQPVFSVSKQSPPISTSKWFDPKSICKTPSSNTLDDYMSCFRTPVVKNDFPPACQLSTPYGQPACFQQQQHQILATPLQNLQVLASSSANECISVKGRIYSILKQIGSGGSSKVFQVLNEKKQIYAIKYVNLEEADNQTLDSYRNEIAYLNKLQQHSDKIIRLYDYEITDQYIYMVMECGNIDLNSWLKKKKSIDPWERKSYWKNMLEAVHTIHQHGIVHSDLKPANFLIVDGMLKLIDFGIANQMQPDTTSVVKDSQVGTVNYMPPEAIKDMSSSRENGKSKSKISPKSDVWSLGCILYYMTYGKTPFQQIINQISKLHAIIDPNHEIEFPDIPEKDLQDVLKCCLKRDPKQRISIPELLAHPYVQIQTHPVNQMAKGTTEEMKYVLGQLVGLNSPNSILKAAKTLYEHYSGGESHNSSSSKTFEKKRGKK
# In short: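 Purified human TTK (7.5 ng) was reacted with 5 μM ATP and 0.2 μg MBP substrate for 4 h at 25 °C in 40 mM Tris-HCl pH 7.4, 20 mM MgCl2, 0.1 mg/mL BSA, 50 μM DTT. ADP formation was read by ADP-Glo luminescence, and IC50 was taken relative to solvent control.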
# Chain of LRRK2 (Q5S007 970-2527 limits assumed): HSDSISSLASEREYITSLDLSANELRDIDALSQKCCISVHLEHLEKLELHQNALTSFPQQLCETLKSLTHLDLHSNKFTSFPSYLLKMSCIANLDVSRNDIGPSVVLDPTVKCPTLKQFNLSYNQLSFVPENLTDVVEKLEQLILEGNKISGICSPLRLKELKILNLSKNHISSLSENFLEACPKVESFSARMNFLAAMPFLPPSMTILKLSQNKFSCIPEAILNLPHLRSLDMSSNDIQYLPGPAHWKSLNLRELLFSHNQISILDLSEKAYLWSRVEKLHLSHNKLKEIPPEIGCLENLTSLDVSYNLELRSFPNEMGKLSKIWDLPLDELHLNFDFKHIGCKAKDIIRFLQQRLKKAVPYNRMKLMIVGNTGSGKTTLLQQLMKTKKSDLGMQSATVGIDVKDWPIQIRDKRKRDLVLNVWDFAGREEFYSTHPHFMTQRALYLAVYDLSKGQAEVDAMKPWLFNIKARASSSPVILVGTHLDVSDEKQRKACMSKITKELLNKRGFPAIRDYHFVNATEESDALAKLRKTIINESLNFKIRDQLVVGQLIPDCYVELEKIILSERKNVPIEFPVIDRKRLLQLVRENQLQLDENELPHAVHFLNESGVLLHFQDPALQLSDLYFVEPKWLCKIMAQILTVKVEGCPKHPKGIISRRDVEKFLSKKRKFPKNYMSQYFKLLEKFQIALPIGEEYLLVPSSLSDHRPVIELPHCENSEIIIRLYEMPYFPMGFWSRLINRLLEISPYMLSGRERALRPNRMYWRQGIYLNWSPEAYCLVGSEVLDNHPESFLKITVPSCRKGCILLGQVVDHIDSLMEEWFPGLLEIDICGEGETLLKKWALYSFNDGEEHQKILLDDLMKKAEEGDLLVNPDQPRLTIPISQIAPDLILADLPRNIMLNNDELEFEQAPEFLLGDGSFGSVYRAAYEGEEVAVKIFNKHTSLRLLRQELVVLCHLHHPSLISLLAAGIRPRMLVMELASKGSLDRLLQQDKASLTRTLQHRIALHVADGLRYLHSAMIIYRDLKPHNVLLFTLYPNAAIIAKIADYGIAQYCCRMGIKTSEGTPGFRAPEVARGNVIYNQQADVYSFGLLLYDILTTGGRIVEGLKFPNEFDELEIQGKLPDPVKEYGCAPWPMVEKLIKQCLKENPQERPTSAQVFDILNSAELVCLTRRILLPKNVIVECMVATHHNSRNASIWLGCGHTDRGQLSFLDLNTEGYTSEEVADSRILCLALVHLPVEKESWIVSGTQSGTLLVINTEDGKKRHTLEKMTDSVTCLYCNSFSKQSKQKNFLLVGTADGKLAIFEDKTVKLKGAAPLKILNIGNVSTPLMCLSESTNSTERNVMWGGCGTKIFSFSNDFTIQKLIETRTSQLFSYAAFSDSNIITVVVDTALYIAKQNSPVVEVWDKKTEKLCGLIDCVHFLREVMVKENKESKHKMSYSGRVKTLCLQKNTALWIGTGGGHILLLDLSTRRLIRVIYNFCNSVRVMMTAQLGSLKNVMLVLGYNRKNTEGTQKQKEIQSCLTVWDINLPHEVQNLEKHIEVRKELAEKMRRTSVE
IC50 [1],IC50 [2],Structure (SMILES)
< 100 nM,< 100 nM,"CCCNc1nc(Nc2ccc(C(=O)N3CCC(N4CCOCC4)CC3)c3c2OCC3)nc2[nH]cc(C(F)(F)F)c12 [Example 446, (4-morpholino-piperidin-1-yl)(7-((4-(propylamino)-5-(trifluoromethyl)-7H-pyrrolo[2,3-d]pyrimidin-2-yl)amino)-2,3-dihydrobenzo-furan-4-yl)methanone]"
< 100 nM,< 100 nM,"O=C(c1ccc(Nc2nc(NC3CC3)c3c(C(F)(F)F)c[nH]c3n2)c2c1CCO2)N1CCC(N2CCOCC2)CC1 [Example 434, (7-((4-(cyclopropyl-amino)5-(trifluoromethyl)-7H-pyrrolo[2,3-d]pyrimidin-2-yl)amino)-2,3-dihydrobenzo-furan-4-yl)(4-morpho-linopiperidin-1-yl)methanone]"
< 100 nM,< 100 nM,"COCCNc1nc(Nc2ccc(C(=O)N3CCC(N4CCOCC4)CC3)c3c2OCC3)nc2[nH]cc(C(F)(F)F)c12 [Example 443, (7-((4-((2-methoxyethyl)amino)-5-(trifluoromethyl)-7H-pyrrolo[2,3-d]pyrimidin-2-yl)amino)-2,3-dihydrobenzo-furan-4-yl)(4-morpho-linopiperidin-1-yl)methanone]"
< 100 nM,< 100 nM,"O=C(c1ccc(Nc2nc(C3CC3)c3c(C(F)(F)F)c[nH]c3n2)c2c1OCCO2)N1CCC(N2CCOCC2)CC1 [Example 228, (8-((4-cyclopropyl-5-(trifluoromethyl)-7H-pyrrolo[2,3-d]pyrimidin-2-yl)amino)-2,3-dihydrobenzo[b][1,4]dioxin-5-yl)(4-morpholinopiperidin-1-yl)methanone]"
< 100 nM,< 100 nM,"COCCNc1nc(Nc2ccc(C(=O)N3CCN(C4COC4)CC3)c3c2OCCO3)nc2[nH]cc(C(F)(F)F)c12 [Example 403, (8-((4-((2-methoxyethyl)-amino)-5-(trifluoromethyl)-7H-pyrrolo[2,3-d]pyrimidin-2-yl)amino)-2,3-dihydrobenzo[b] [1,4]dioxin-5-yl) (4-(oxetan-3-yl)piperazin-1-yl)methanone]"
< 100 nM,< 100 nM,CCN1CCP(=O)(c2ccc(Nc3nc(C4CC4)c4c(C#N)c[nH]c4n3)c(OC)c2)CC1 [Example 261]
< 100 nM,< 100 nM,"C=CCNc1nc(Nc2ccc(S(=O)(=O)N3CCC(N4CCOCC4)CC3)cc2OC)nc2[nH]cc(C#N)c12 [Example 361, 4-(allylamino)-2-((2-methoxy-4-((4-morpholino-piperidin-1-yl)sulfonyl)phenyl)amino)-7H-pyrrolo[2,3-d]pyrimidine-5-carbonitrile]"

# Further lines, the molecule ahead of its results:
Structure (SMILES),IC50 [1],IC50 [2]
"CNc1nc(Nc2ccc(S(=O)(=O)N3CCC(N4CCOCC4)CC3)c3c2OCCO3)nc2[nH]cc(C(F)(F)F)c12 [Example 219, N^4-methyl-N^2-(8-((4-morpholinopiperidin-1-yl)sulfonyl)-2,3-dihydrobenzo[b][1,4]dioxin-5-yl)-5-(trifluoromethyl)-7H-pyrrolo[2,3-d]pyrimidine-2,4-diamine]",< 100 nM,< 100 nM
"N#Cc1c[nH]c2nc(Nc3ccc(C(=O)N4CCC(N5CCOCC5)CC4)c4c3OCCO4)nc(C3CC3)c12 [Example 221, 4-cyclopropyl-2-((8-(4-morpholinopiperidine-1-carbonyl)-2,3-dihydrobenzo[b][1,4]dioxin-5-yl)amino)-7H-pyrrolo[2,3-d]pyrimidine-5-carbonitrile]",< 100 nM,< 100 nM
"CCNc1nc(Nc2ccc(S(=O)(=O)N3CCC(N4CCOCC4)CC3)c3c2OCCO3)nc2[nH]cc(C(F)(F)F)c12 [Example 430, N^4-ethyl-N^2-(8-((4-morpholino-piperidin-1-yl)sulfonyl)-2,3-dihydro-benzo[b][1,4]dioxin-5-yl)-5-(trifluoromethyl)-7H-pyrrolo[2,3-d]pyrimidine-2,4-diamine]",< 100 nM,< 100 nM
"COc1cc(S(=O)(=O)N2CCOCC2)ccc1Nc1nc(C2CC2)c2c(C#N)c[nH]c2n1 [Example 223, 4-cyclopropyl-2-((2-methoxy-4-(morpholinosulfonyl)phenyl)amino)-7H-pyrrolo[2,3-d]pyrimidine-5-carbonitrile]",101 to 300 nM,101 to 300 nM
"CCCNc1nc(Nc2ccc(C(=O)N3CCC(N4CCOCC4)CC3)c3c2OCCO3)nc2[nH]cc(C#N)c12 [Example 138, 2-((8-(4-morpholinopiperidine-1-carbonyl)-2,3-dihydrobenzo[b][1,4]dioxin-5-yl)amino)-4-(propylamino)-7H-pyrrolo[2,3-d]pyrimidine-5-carbonitrile]",< 100 nM,< 100 nM
"CCCNc1nc(Nc2ccc(S(=O)(=O)N3CCC(N4CCOCC4)CC3)cc2OC)nc2[nH]cc(C(F)(F)F)c12 [Example 161, N^2-(2-methoxy-4-((4-morpholinopiperidin-1-yl)sulfonyl)phenyl)-N^4-propyl-5-(trifluoromethyl)-7H-pyrrolo[2,3-d]pyrimidine-2,4-diamine]",< 100 nM,101 to 300 nM
"CCNc1nc(Nc2ccc(S(=O)(=O)N3CCC(N4CCOCC4)CC3)cc2OC)nc2[nH]cc(C(F)(F)F)c12 [Example 158, N^4-ethyl-N^2-(2-methoxy-4-((4-morpholinopiperidin-1-yl)sulfonyl)phenyl)-5-(trifluoromethyl)-7H-pyrrolo[2,3-d]pyrimidine-2,4-diamine 2,2,2-trifluoroacetate]",< 100 nM,< 100 nM
CCNc1nc(Nc2ccc(C(=O)N3CCC(N4C[C@@H]5C[C@H]4CO5)CC3)c3c2OCC3)nc2[nH]cc(C(F)(F)F)c12 [Example 468],< 100 nM,< 100 nM
"COc1cc(P2(=O)CCN(C3CCOCC3)CC2)ccc1Nc1nc(NC2CC2)c2c(C(F)(F)F)c[nH]c2n1 [Example 435, 4-(4-((4-(cyclo-propylamino)-5-(trifluoromethyl)-7H-pyrrolo[2,3-d]pyrimidin-2-yl)amino)-3-methoxyphenyl)-1-(tetrahydro-2H-pyran-4-yl)-1,4-azaphosphinane 4-oxide]",< 100 nM,< 100 nM
"COc1cc(S(=O)(=O)N2CCC(N3CCOCC3)CC2)ccc1Nc1nc(C2CC2)c2c(C#N)c[nH]c2n1 [Example 224, 4-cyclopropyl-2-((2-methoxy-4-((4-morpholinopiperidin-1-yl)sulfonyl)phenyl)amino)-7H-pyrrolo[2,3-d]pyrimidine-5-carbonitrile]",< 100 nM,< 100 nM
